From US20140314904A1, “PRE-SLAUGHTER DIET INCLUDING METHIONINE” (ADISSEO FRANCE S.A.S., priority 2011, published 2014)

Assays:
Assay type in all cases: in vivo, pig
pigs [1] = experiment: Shear force (maximum load) after storage, Example 2; conditions: 9 days post mortem, P < 0.02
Description: (§1) The pigs were slaughtered at a commercial slaughter house in Sweden after a resting time of 5 h. At 45 minutes post mortem, pH (Knick portamess 751) and temperature (digital thermometer, Weber) were measured in the M. longissiumus dorsi at the level of the 10th rib. At 48 h post mortem, the entire loins were dissected from the carcasses and transported to the University of Copenhagen for further measurements. Ultimate pH was measured, as well as colour by Minolta L*a*b*. Dry matter content was determined by drying muscle samples at 105° C. for 24 h. Slices of 3 cm thickness were cut, measured and vacuum packed before being stored for a further 7 days at 2° C. At the end of the storage period samples were heated to an internal temperature of 75° C. After being cooled down, samples were stored cold at 2° C. until they were cut into slabs of 1 cm×1 cm×2.5 cm size for shear force measurement. For each animal, 8 specimens were measured and the mean maximum load was used for further analysis.

slaughter pigs [2] = experiment: Warner-Bratzler shear force (WBSF), instrumental hardness; conditions: 7 days at 2° C., LS mean ± SEM
Description: In Example 1 twenty-one pigs were randomly assigned to one of three feeding groups (n=7). The control group received a standardized diet only. The DLM and HMTBA groups received the standardized diet plus a high-methionine supplement (either DLM (i.e. […] At 48 h post mortem, 3 cm thick pork chops were either vacuum packed or sealed in a modified atmosphere (MA; 80% O2) and stored for an additional 7 days at 2° C. Instrumental hardness was measured using the Warner-Bratzler shear force (WBSF; Newton) method. Protein oxidation was measured as the loss of free thiol groups in proteins (nmol thiol per mg protein) using Ellman's reagent. Lipid oxidation was measured as the increase in 2-thiobarbituric acid reactive substances (TBARS; mg malondialdehyde per kg meat). Twenty-one slaughter pigs ([Yorkshire×Swedish Landrace]×Hampshire) were raised on a commercial diet. Pigs were randomly assigned to one of three groups (n=7). […] Pork chops were cut perpendicular to the long axis of each LD muscle. Six 3 cm thick pork chops was sliced from each LD. Three were vacuum packed and three were packed in a high-oxygen modified atmosphere. The chops were placed in plastic trays ([…]-43A white/PS; 195×144×43 mm in dimension; Frch Plast, Denmark) and placed in vacuum bags (EM-628862; […] The ambient air was removed from all vacuum bags using a vacuum machine (type, manufacturer, country). […] (until 9 days post mortem). The gas composition was checked (CheckMate 9900, PBI Dansensor, Denmark) before packaging and again prior to opening, at the end of the simulated display period in order to check for leakage. The oxygen-enriched environment was well maintained (83.4%) throughout the display period for all MA packages. Instrumental hardness was measured using the Warner-Bratzler shear force (WBSF) method. In short, at the end of the display period fresh samples were heated in a water bath in an oven (type, manufacturer, country). The temperature rise was monitored for one sample and the remaining samples were given the time to reach an internal temperature of 75° C. plus five minutes. The samples were cooled down before cores of 1 cm×1 cm×2.5 cm were excised for shear force analysis.

pigs [3] = experiment: Colour by Minolta L*a*b*, Example 2; conditions: Laboratory, 2 days post mortem
Description: as §1

slaughter pigs [4] = experiment: Instrumental meat colour (CIE L*a*b*), Example 1; conditions: LS mean ± SEM
From the text: Twenty-one slaughter pigs ([Yorkshire×Swedish Landrace]×Hampshire) were raised on a commercial diet. Pigs were randomly assigned to one of three groups (n=7). The groups represented three feeding strategies, namely a Control group which received a standardized diet comprising 0.27% total methionine, and both a DLM and HMTBA group, receiving the same diet as the Control group throughout the feeding period, apart from the fact that they were fed a higher level of methionine (1.1% total methionine) during a seven day finishing period immediately prior to slaughter. The supplements were given in two forms, either as D L-methionine (DLM) or DL-2-hydroxy-4-methylthiobutanoic acid (HMTBA).
Pork chops were cut perpendicular to the long axis of each LD muscle. Six 3 cm thick pork chops was sliced from each LD. Three were vacuum packed and three were packed in a high-oxygen modified atmosphere. The chops were placed in plastic trays (M71-43A white/PS; 195×144×43 mm in dimension; Frch Plast, Denmark) and placed in vacuum bags (EM-628862; O2 transmission rate=40-50 cm^3/m^2/24 h/bar, CO2 transmission rate=150 cm^3/m^2/24 h/bar, water-vapour transmission rate=2.6 g/m^2/24 h; LogiCon Nordic A/S, Denmark). The ambient air was removed from all vacuum bags using a vacuum machine (type, manufacturer, country). The bags intended for […] were first filled with a gas mixture (80% oxygen/20% carbon dioxide) before being sealed completely, whereas the bags intended for MAP were only partially sealed. […] (until 9 days post mortem). The gas composition was checked (CheckMate 9900, PBI Dansensor, Denmark) before packaging and again prior to opening, at the end of the simulated display period in order to check for leakage. The oxygen-enriched environment was well maintained (83.4%) throughout the display period for all MA packages.
Instrumental meat colour was measured with a Minolta Chroma Meter (CR-300; D65 and 2° observer angle, 8 mm diameter measuring area; Minolta, Japan). Before packaging, as described previously, colour recordings of the pork chops was carried out. At the end of the display period, the pork chops were allowed to bloom for at least 30 min at 4±2° C. once they had been removed from the vacuum bags. Colour measurements followed the CIE colour convention, where the three fundamental outputs are L*, a* and b*. L* is lightness on a scale of 0 (all light absorbed; black) to 100 (all light reflected; white); a* spans from +60 (red) to −60 (green) and b* spans from +60 (yellow) to −60 (blue). The saturation index, also known as chroma, was calculated as the square root of a*^2+b*^2 (MacDougall, 1977). Three recordings were made on each pork chop, and the mean value was used for statistical analysis.

[5] = Initial (2 days post mortem), square root of a*^2+b*^2
[6] = MAP 80% O2/20% CO2 (9 days post mortem)

SMILES	Maximum Load (pigs [1])	Instrumental hardness, WBSF values (slaughter pigs [2]; MAP (80% O2 + 20% CO2))	Instrumental hardness, WBSF values (slaughter pigs [2]; Vacuum)	Colour Minolta L* (pigs [3])	Colour Minolta a* (pigs [3])	Colour Minolta b* (pigs [3])	Light reflection (L*) (slaughter pigs [4]; Initial (2 days post mortem))	Redness (a*) (slaughter pigs [4]; Initial (2 days post mortem))	Yellowness (b*) (slaughter pigs [4]; Initial (2 days post mortem))	Saturation index (slaughter pigs [4]; [5])	Redness (a*) (slaughter pigs [4]; [6])	Saturation index (slaughter pigs [4]; [6])	Yellowness (b*) (slaughter pigs [4]; [6])
CSCCC(N)C(=O)O (racemic) [DLM, DL-methionine]	34 N	38.58 ± 3.65 ^A, B N	28.80 ± 3.65 ^D N	55.75 units	6.69 units	2.92 units	55.75 ± 1.25 ^B	6.69 ± 0.58 ^C, D	2.92 ± 0.46 ^C	7.33 ± 0.67 ^E	7.83 ± 0.59 ^A, B, C, D	10.55 ± 0.69 ^A, B, C, D	7.10 ± 0.49 ^A, B
CSCCC(O)C(=O)O (racemic) [HMTBA, 2-hydroxy-4-(methylthio) butanoic acid]	37 N	43.64 ± 3.65 ^A, B N	30.55 ± 3.65 ^C, D N	56.89 units	7.58 units	3.71 units	56.89 ± 1.25 ^A, B	7.58 ± 0.58 ^B, D	3.71 ± 0.46 ^C	8.46 ± 0.67 ^C, D, E	7.43 ± 0.59 ^B, D	9.81 ± 0.69 ^B, C, D, E	6.35 ± 0.49 ^B
